Experiments:
SALL4 ZNF1-2 = biological target: T1, SALL4 ZNF1-2 (Homo sapiens, UniProt Q96SW2+Q9UJQ4); assay: Cellular degradation assay, eGFP-SALL4 ZnF1-2 fusion with mCherry reporter in Flp-In 293 cells; format: cell-based; settings: 5 h incubation, n=1
T1 construct: IKZF1Δ, IKZF2Δ, GSPT1 and SALL4 ZnF1-2 were subcloned; expressed in transfected cells; host or cells: Flp-In 293
Method: IKZF1Δ, IKZF2Δ, GSPT1 and SALL4 ZnF1-2 were subcloned into mammalian pcDNA5/FRT Vector (Ampicillin and Hygromycin B resistant) modified to contain MCS-eGFP-P2A-mCherry. Stable cell lines expressing eGFP-protein fusion and mCherry reporter were generated using Flp-In™ 293 system. Plasmid (0.3 μg) and pOG44 (4.7 μg) DNA were preincubated in 100 μL of Opti-MEM® I (Gibco®, Life Technologies™) media containing 0.05 mg/mL Lipofectamine® 2000 (Invitrogen™) for 20 min and added to Flp-In™ 293 cells containing 1.9 ml of DMEM media (Gibco®, Life Technologies™) per well in a 6-well plate format (Falcon, 353046). Cells were propagated after 48 h and transferred into a 10 cm^2 plate (Corning, 430165) in DMEM media containing 50 μg/mL of Hygromycin B (REF 10687010, Invitrogen™) as a selection marker. Following 2-3 passage cycle, FACS (FACSAria™ II, BD) was used to enrich for cells expressing eGFP and mCherry. Cells stably expressing the IKZF1Δ, IKZF2Δ, GSPT1 or SALL4 Znf1-2 GFP fusions with mCherry reporter were seeded at 30-50% confluency in 384-well plates with 50 μL FluoroBrite™ DMEM media (Thermo Fisher Scientific, A18967) containing 10% FBS per well a day before compound treatment. Compound titrations were dispensed using a D300e Digital Dispenser (HP), normalized to 0.5% DMSO, and incubated with cells for 5 hours. The assay plate was imaged immediately using an Acumen® High Content Imager (TTP Labtech) with 488 nm and 561 nm lasers in […] grid per well format.
The resulting images were analyzed using CellProfiler™. A series of image analysis steps (‘image analysis pipeline’) was constructed. First, the red and green channels were aligned and cropped to target the middle of each well (to avoid analysis of heavily clumped cells at the edges), and a background illumination function was calculated for both red and green channels of each well individually and subtracted to correct for illumination variations across the 384-well plate from various sources of error. An additional step was then applied to the green channel to suppress the analysis of large auto fluorescent artifacts and enhance the analysis of cell specific fluorescence by way of selecting for objects under a given size, 30 A.U., and with a given shape, speckles. mCherry-positive cells were then identified in the red channel filtering for objects between 8-60 pixels in diameter and using intensity to distinguish between clumped objects. The green channel was then segmented into GFP positive and negative areas and objects were labeled as GFP positive if at least 40% of it overlapped with a GFP positive area. The fraction of GFP-positive cells/mCherry-positive cells in each well was then calculated, and the green and red images were rescaled for visualization.

GSPT1 = GSPT1 (Homo sapiens, UniProt P15170+Q96SW2); assay: Cellular degradation assay, eGFP-GSPT1 fusion with mCherry reporter in Flp-In 293 cells; format: cell-based; set-up: expressed in transfected cells; host or cells: Flp-In 293; settings: 5 h incubation, n=1
Summary of the method: (§1)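 DC50,5 h derived by variable-slope nonlinear fit of the per-well ratio of GFP-positive to mCherry-positive cells, imaged after 5 h compound exposure at 0.5% DMSO.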

IKZF1 = biological target: T2, IKZF1 (Homo sapiens, UniProt Q13422); assay: Cellular degradation assay, eGFP-IKZF1Δ fusion with mCherry reporter in Flp-In 293 cells; format: cell-based; settings: 5 h incubation, n=1
T2 construct: expressed in transfected cells; host or cells: Flp-In 293
Summary of the method: as §1

CRBN and Helios (IKZF2) = biological target: T3, CRBN and Helios (IKZF2) (Homo sapiens, UniProt Q96SW2+Q9UKS7); assay: TR-FRET dimerization assay (CRBN-IKZF2 ternary complex formation); format: binding; settings: n=1
T3 construct: His (N); Strep (N)
Summary of the method: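 Compound-induced IKZF2 recruitment to CRBN was read as the 520/490 nm TR-FRET ratio after 15 min at rt. The mix held biotinylated IKZF2, BODIPY-labeled CRBN bound to DDB1 lacking the BPB propeller, tracer Tb-streptavidin and compound titrations; n=1, from ≥3 technical replicates per well.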

IKZF2 = assay: Cellular degradation assay, eGFP-IKZF2Δ fusion with mCherry reporter in Flp-In 293 cells; format: cell-based; settings: 5 h incubation, n=1
Summary of the method: as §1

[1] = compound concentration 2.00E−05
[2] = compound concentration 2.00E−06
[3] = compound concentration 2.00E−07
[4] = compound concentration 6.6667E−05
[5] = compound concentration 6.6667E−06
[6] = compound concentration 6.6667E−07 (667 nM)

T1 sequence (Q9UJQ4 378-438 limits assumed): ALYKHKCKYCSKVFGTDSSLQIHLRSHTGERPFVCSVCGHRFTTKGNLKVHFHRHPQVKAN
T1 sequence (Q96SW2 whole entry, the tested form may be a part): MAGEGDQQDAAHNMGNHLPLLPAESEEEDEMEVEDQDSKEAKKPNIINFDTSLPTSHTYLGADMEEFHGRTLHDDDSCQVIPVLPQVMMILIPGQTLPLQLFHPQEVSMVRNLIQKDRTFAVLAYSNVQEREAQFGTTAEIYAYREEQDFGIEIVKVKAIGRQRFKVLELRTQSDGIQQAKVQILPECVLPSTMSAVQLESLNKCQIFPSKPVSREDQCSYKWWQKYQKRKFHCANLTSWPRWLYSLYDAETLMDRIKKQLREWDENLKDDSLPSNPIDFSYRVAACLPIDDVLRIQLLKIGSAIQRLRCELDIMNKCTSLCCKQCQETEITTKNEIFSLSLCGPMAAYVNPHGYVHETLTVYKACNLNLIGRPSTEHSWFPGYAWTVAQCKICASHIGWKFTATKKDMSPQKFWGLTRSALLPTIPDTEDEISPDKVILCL
T1 sequence (Q16531 whole entry partner, the tested form may be a part): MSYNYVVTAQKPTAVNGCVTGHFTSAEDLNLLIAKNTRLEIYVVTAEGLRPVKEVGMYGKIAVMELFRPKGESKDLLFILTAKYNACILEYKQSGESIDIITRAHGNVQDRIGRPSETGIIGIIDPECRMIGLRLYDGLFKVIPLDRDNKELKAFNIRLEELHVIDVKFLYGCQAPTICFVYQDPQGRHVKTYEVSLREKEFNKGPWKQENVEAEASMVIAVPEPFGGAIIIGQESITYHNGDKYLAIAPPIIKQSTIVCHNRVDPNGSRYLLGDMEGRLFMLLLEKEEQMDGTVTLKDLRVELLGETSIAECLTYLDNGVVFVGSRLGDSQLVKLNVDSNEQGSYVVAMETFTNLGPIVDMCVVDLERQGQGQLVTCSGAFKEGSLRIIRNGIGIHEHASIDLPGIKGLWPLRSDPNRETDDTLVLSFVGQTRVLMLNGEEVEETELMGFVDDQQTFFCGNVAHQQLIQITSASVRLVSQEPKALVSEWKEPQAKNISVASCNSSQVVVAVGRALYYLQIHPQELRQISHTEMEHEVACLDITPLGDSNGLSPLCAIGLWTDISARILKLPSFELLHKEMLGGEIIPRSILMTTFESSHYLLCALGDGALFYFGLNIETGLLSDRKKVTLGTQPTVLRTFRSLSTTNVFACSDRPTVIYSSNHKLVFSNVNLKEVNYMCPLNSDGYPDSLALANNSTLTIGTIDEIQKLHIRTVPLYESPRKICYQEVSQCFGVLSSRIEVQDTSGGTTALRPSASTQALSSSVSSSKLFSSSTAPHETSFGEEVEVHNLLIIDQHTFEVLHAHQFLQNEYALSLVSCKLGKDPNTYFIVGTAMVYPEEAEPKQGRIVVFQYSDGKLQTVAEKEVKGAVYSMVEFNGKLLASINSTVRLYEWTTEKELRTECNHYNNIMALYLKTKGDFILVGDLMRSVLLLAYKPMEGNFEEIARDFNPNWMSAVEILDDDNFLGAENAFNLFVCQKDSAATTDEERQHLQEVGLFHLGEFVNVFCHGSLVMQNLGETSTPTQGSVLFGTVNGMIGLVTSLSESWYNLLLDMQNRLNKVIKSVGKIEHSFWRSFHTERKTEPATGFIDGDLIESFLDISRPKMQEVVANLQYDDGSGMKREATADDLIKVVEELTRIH
T3 sequence (Q96SW2 whole entry): as the sequence (Q96SW2 whole entry, the tested form may be a part) above
T3 sequence (Q9UKS7 whole entry): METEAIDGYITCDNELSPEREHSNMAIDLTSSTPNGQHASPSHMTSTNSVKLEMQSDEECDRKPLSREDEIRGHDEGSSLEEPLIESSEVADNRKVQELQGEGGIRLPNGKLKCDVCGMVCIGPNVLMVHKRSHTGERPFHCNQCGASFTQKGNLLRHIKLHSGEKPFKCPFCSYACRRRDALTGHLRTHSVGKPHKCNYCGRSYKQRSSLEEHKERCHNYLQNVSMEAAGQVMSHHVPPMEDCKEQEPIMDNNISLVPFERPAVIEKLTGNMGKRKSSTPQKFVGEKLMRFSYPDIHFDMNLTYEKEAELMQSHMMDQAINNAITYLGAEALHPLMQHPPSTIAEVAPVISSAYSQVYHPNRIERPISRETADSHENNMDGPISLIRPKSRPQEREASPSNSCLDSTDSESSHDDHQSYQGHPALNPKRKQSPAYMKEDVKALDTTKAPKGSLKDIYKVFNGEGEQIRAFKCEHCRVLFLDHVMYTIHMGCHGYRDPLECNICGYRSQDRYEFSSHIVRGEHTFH
T2 sequence (Q13422 83-213 isoform Q13422-7 limits assumed): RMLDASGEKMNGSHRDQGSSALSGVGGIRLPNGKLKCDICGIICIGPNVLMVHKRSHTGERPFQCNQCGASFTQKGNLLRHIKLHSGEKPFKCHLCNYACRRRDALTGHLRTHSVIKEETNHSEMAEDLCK
T2 sequence (Q96SW2 whole entry partner, the tested form may be a part): as the sequence (Q96SW2 whole entry, the tested form may be a part) above
T2 sequence (Q16531 2-1140 partner limits assumed): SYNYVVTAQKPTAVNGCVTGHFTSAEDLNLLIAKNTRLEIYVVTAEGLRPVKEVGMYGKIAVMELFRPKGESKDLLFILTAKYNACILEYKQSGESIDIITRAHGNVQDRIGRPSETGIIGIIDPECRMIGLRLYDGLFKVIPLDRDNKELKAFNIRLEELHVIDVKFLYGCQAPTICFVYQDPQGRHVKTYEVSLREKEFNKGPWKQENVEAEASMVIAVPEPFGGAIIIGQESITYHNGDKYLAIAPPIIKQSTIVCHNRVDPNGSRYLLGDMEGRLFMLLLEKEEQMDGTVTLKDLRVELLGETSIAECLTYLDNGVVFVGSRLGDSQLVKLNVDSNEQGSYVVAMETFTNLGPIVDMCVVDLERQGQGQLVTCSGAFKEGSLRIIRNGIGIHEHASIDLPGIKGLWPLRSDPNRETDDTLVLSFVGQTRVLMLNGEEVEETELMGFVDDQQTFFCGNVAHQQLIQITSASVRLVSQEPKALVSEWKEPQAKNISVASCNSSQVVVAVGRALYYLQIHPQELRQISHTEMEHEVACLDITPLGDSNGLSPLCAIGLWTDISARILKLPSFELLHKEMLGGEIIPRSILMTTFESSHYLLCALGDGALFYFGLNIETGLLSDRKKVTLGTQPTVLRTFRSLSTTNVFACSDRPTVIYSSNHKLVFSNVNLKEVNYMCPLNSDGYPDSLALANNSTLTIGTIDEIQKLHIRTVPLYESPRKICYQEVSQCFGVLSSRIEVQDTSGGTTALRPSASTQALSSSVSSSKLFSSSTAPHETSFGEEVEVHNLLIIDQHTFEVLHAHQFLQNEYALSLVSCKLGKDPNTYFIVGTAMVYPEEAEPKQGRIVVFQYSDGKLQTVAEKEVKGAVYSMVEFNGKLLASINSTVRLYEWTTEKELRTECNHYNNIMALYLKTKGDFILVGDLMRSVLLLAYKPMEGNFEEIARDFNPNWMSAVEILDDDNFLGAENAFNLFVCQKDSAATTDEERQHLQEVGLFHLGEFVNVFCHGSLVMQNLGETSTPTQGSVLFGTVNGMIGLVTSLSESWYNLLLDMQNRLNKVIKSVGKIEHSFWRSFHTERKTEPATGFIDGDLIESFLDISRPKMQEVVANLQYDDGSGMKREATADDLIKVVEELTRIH
GSPT1, sequence (P15170 whole entry, the tested form may be a part): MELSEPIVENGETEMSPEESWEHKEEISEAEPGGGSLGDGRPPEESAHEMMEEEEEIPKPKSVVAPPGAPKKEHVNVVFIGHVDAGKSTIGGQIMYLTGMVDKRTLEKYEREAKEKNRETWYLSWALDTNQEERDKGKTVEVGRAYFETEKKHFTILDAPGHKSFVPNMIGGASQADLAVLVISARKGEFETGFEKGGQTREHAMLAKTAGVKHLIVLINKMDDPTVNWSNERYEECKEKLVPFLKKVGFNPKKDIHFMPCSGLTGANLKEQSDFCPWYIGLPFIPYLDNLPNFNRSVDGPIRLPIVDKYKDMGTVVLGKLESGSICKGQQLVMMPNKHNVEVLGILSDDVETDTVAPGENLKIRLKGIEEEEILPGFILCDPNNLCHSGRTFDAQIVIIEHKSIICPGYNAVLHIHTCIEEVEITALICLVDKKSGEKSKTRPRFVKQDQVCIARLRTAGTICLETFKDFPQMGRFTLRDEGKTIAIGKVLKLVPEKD
GSPT1, sequence (Q96SW2 whole entry, the tested form may be a part): as the sequence (Q96SW2 whole entry, the tested form may be a part) above
GSPT1, sequence (Q16531 whole entry partner, the tested form may be a part): as the sequence (Q16531 whole entry partner, the tested form may be a part) above

## Cc1cc(NC2=CC(=O)N(C3CCC(=O)NC3=O)C2=O)ccc1Cl (stereo not drawn) [Compound 4, 3-(3-((4-chloro-3-methylphenyl)amino)-2,5-dioxo-2,5-dihydro-1H-pyrrol-1-yl)piperidine-2,6-dione]
SALL4 ZNF1-2; [1]
  SALL4 ZNF1-2 GFP/RFP Relative Abundance: 0.862
SALL4 ZNF1-2; [2]
  SALL4 ZNF1-2 GFP/RFP Relative Abundance: 0.850
SALL4 ZNF1-2; [3]
  SALL4 ZNF1-2 GFP/RFP Relative Abundance: 0.903
GSPT1; [1]
  GSPT1 GFP/RFP Relative Abundance: 0.922
GSPT1; [2]
  GSPT1 GFP/RFP Relative Abundance: 0.904
GSPT1; [3]
  GSPT1 GFP/RFP Relative Abundance: 0.750
IKZF1; [1]
  IKZF1 GFP/RFP Relative Abundance: 0.314
IKZF1; [2]
  IKZF1 GFP/RFP Relative Abundance: 0.433
IKZF1; [3]
  IKZF1 GFP/RFP Relative Abundance: 0.550
CRBN and Helios (IKZF2); [4]
  TR-FRET-IKZF2 (Normalized to CC-885): 0.485
CRBN and Helios (IKZF2); [5]
  TR-FRET-IKZF2 (Normalized to CC-885): 0.411
CRBN and Helios (IKZF2); [6]
  TR-FRET-IKZF2 (Normalized to CC-885): 0.270
IKZF2; [1]
  IKZF2 GFP/RFP Relative Abundance: 0.925
IKZF2; [2]
  IKZF2 GFP/RFP Relative Abundance: 1.028
IKZF2; [3]
  IKZF2 GFP/RFP Relative Abundance: 1.002

## Cc1ccc(NC2=CC(=O)N(C3CCC(=O)NC3=O)C2=O)cc1C#N (stereo not drawn) [Compound 5, 5-((1-(2,6-dioxopiperidin-3-yl)-2,5-dioxo-2,5-dihydro-1H-pyrrol-3-yl)amino)-2-methylbenzonitrile]
SALL4 ZNF1-2; [1]
  SALL4 ZNF1-2 GFP/RFP Relative Abundance: 1.008
SALL4 ZNF1-2; [2]
  SALL4 ZNF1-2 GFP/RFP Relative Abundance: 0.946
SALL4 ZNF1-2; [3]
  SALL4 ZNF1-2 GFP/RFP Relative Abundance: 0.992
GSPT1; [1]
  GSPT1 GFP/RFP Relative Abundance: 0.714
GSPT1; [2]
  GSPT1 GFP/RFP Relative Abundance: 0.843
GSPT1; [3]
  GSPT1 GFP/RFP Relative Abundance: 1.050
IKZF1; [1]
  IKZF1 GFP/RFP Relative Abundance: 0.395
IKZF1; [2]
  IKZF1 GFP/RFP Relative Abundance: 0.478
IKZF1; [3]
  IKZF1 GFP/RFP Relative Abundance: 0.650
CRBN and Helios (IKZF2); [4]
  TR-FRET-IKZF2 (Normalized to CC-885): 0.376
CRBN and Helios (IKZF2); [5]
  TR-FRET-IKZF2 (Normalized to CC-885): 0.296
CRBN and Helios (IKZF2); [6]
  TR-FRET-IKZF2 (Normalized to CC-885): 0.187
IKZF2; [1]
  IKZF2 GFP/RFP Relative Abundance: 0.930
IKZF2; [2]
  IKZF2 GFP/RFP Relative Abundance: 1.000
IKZF2; [3]
  IKZF2 GFP/RFP Relative Abundance: 1.020

## COC(=O)CNC1=CC(=O)N(C2CCC(=O)NC2=O)C1=O (stereo not drawn) [Compound 13, Methyl (1-(2,6-dioxopiperidin-3-yl)-2,5-dioxo-2,5-dihydro-1H-pyrrol-3-yl)glycinate]
SALL4 ZNF1-2; [1]
  SALL4 ZNF1-2 GFP/RFP Relative Abundance: 0.962
SALL4 ZNF1-2; [2]
  SALL4 ZNF1-2 GFP/RFP Relative Abundance: 1.017
SALL4 ZNF1-2; [3]
  SALL4 ZNF1-2 GFP/RFP Relative Abundance: 1.017
GSPT1; [1]
  GSPT1 GFP/RFP Relative Abundance: 1.172
GSPT1; [2]
  GSPT1 GFP/RFP Relative Abundance: 1.162
GSPT1; [3]
  GSPT1 GFP/RFP Relative Abundance: 1.004
IKZF1; [1]
  IKZF1 GFP/RFP Relative Abundance: 1.069
IKZF1; [2]
  IKZF1 GFP/RFP Relative Abundance: 1.076
IKZF1; [3]
  IKZF1 GFP/RFP Relative Abundance: 1.058
CRBN and Helios (IKZF2); [4]
  TR-FRET-IKZF2 (Normalized to CC-885): 0.032
CRBN and Helios (IKZF2); [5]
  TR-FRET-IKZF2 (Normalized to CC-885): 0.028
CRBN and Helios (IKZF2); [6]
  TR-FRET-IKZF2 (Normalized to CC-885): 0.019
IKZF2; [1]
  IKZF2 GFP/RFP Relative Abundance: 1.040
IKZF2; [2]
  IKZF2 GFP/RFP Relative Abundance: 1.005
IKZF2; [3]
  IKZF2 GFP/RFP Relative Abundance: 1.070

## COC(=O)CCNC1=CC(=O)N(C2CCC(=O)NC2=O)C1=O (stereo not drawn) [Compound 14, Methyl 3-((1-(2,6-dioxopiperidin-3-yl)-2,5-dioxo-2,5-dihydro-1H-pyrrol-3-yl)amino)propanoate]
SALL4 ZNF1-2; [1]
  SALL4 ZNF1-2 GFP/RFP Relative Abundance: 0.955
SALL4 ZNF1-2; [2]
  SALL4 ZNF1-2 GFP/RFP Relative Abundance: 0.944
SALL4 ZNF1-2; [3]
  SALL4 ZNF1-2 GFP/RFP Relative Abundance: 0.983
GSPT1; [1]
  GSPT1 GFP/RFP Relative Abundance: 1.058
GSPT1; [2]
  GSPT1 GFP/RFP Relative Abundance: 1.018
GSPT1; [3]
  GSPT1 GFP/RFP Relative Abundance: 0.915
IKZF1; [1]
  IKZF1 GFP/RFP Relative Abundance: 1.033
IKZF1; [2]
  IKZF1 GFP/RFP Relative Abundance: 1.031
IKZF1; [3]
  IKZF1 GFP/RFP Relative Abundance: 1.043
CRBN and Helios (IKZF2); [4]
  TR-FRET-IKZF2 (Normalized to CC-885): 0.046
CRBN and Helios (IKZF2); [5]
  TR-FRET-IKZF2 (Normalized to CC-885): 0.040
CRBN and Helios (IKZF2); [6]
  TR-FRET-IKZF2 (Normalized to CC-885): 0.022
IKZF2; [1]
  IKZF2 GFP/RFP Relative Abundance: 1.022
IKZF2; [2]
  IKZF2 GFP/RFP Relative Abundance: 0.982
IKZF2; [3]
  IKZF2 GFP/RFP Relative Abundance: 1.040

## COC(=O)CN(C)C1=CC(=O)N(C2CCC(=O)NC2=O)C1=O (stereo not drawn) [Compound 15, Methyl N-(1-(2,6-dioxopiperidin-3-yl)-2,5-dioxo-2,5-dihydro-1H-pyrrol-3-yl)-N-methylglycinate]
SALL4 ZNF1-2; [1]
  SALL4 ZNF1-2 GFP/RFP Relative Abundance: 0.912
SALL4 ZNF1-2; [2]
  SALL4 ZNF1-2 GFP/RFP Relative Abundance: 0.910
SALL4 ZNF1-2; [3]
  SALL4 ZNF1-2 GFP/RFP Relative Abundance: 1.047
GSPT1; [1]
  GSPT1 GFP/RFP Relative Abundance: 1.009
GSPT1; [2]
  GSPT1 GFP/RFP Relative Abundance: 1.036
GSPT1; [3]
  GSPT1 GFP/RFP Relative Abundance: 1.043
IKZF1; [1]
  IKZF1 GFP/RFP Relative Abundance: 1.041
IKZF1; [2]
  IKZF1 GFP/RFP Relative Abundance: 1.032
IKZF1; [3]
  IKZF1 GFP/RFP Relative Abundance: 0.996
CRBN and Helios (IKZF2); [4]
  TR-FRET-IKZF2 (Normalized to CC-885): 0.050
CRBN and Helios (IKZF2); [5]
  TR-FRET-IKZF2 (Normalized to CC-885): 0.039
CRBN and Helios (IKZF2); [6]
  TR-FRET-IKZF2 (Normalized to CC-885): 0.025
IKZF2; [1]
  IKZF2 GFP/RFP Relative Abundance: 1.024
IKZF2; [2]
  IKZF2 GFP/RFP Relative Abundance: 1.036
IKZF2; [3]
  IKZF2 GFP/RFP Relative Abundance: 1.028

## CCOC(=O)CNC1=CC(=O)N(C2CCC(=O)NC2=O)C1=O (stereo not drawn) [Compound 16, Ethyl (1-(2,6-dioxopiperidin-3-yl)-2,5-dioxo-2,5-dihydro-1H-pyrrol-3-yl)glycinate]
SALL4 ZNF1-2; [1]
  SALL4 ZNF1-2 GFP/RFP Relative Abundance: 1.001
SALL4 ZNF1-2; [2]
  SALL4 ZNF1-2 GFP/RFP Relative Abundance: 1.007
SALL4 ZNF1-2; [3]
  SALL4 ZNF1-2 GFP/RFP Relative Abundance: 1.013
GSPT1; [1]
  GSPT1 GFP/RFP Relative Abundance: 0.978
GSPT1; [2]
  GSPT1 GFP/RFP Relative Abundance: 0.876
GSPT1; [3]
  GSPT1 GFP/RFP Relative Abundance: 1.006
IKZF1; [1]
  IKZF1 GFP/RFP Relative Abundance: 1.070
IKZF1; [2]
  IKZF1 GFP/RFP Relative Abundance: 1.011
IKZF1; [3]
  IKZF1 GFP/RFP Relative Abundance: 1.053
CRBN and Helios (IKZF2); [4]
  TR-FRET-IKZF2 (Normalized to CC-885): 0.032
CRBN and Helios (IKZF2); [5]
  TR-FRET-IKZF2 (Normalized to CC-885): 0.028
CRBN and Helios (IKZF2); [6]
  TR-FRET-IKZF2 (Normalized to CC-885): 0.018
IKZF2; [1]
  IKZF2 GFP/RFP Relative Abundance: 0.987
IKZF2; [2]
  IKZF2 GFP/RFP Relative Abundance: 1.015
IKZF2; [3]
  IKZF2 GFP/RFP Relative Abundance: 1.006
